Laboratory results published in ChEMBL document CHEMBL2057086, “3-Bromo-3-deazaneplanocin and 3-bromo-3-deazaaristeromycin: synthesis and antiviral activity” (Bioorg Med Chem Lett, 2012).
The source made the active and inactive calls. The calls are words filed in the database; no cut-off is given here.

Key:
[1] = tested on: Mammalian orthoreovirus 1; experiment: Antiviral activity against Reovirus 1 infected in african green monkey Vero cells assessed as reduction of viral replication; assay type: functional, organism-based
Coxsackievirus B4 = experiment: Antiviral activity against Coxsackievirus B4 virus infected in african green monkey Vero cells assessed as reduction of viral replication; assay type: functional, organism-based
Sindbis virus = experiment: Antiviral activity against Sindbis virus infected in african green monkey Vero cells assessed as reduction of viral replication; assay type: functional, organism-based
Feline coronavirus = experiment: Antiviral activity against Feline coronavirus assessed as reduction of viral replication; assay type: functional, organism-based
Human alphaherpesvirus 2 = experiment: Antiviral activity against HSV-2 infected in HEL assessed as reduction of viral replication; assay type: functional, organism-based
Human alphaherpesvirus 1 = experiment: Antiviral activity against HSV-1 infected in HEL assessed as reduction of viral replication; assay type: functional, organism-based
[2] = Selectivity index, ratio of CC50 for african green monkey Vero cells to EC50 for Pichinde virus; assay type: toxicity, cell-based; conditions: read-out: Selectivity Index
[3] = Selectivity index, ratio of CC50 for african green monkey Vero cells to EC50 for Junin virus; assay type: toxicity, cell-based; conditions: read-out: Selectivity Index
[4] = Selectivity index, ratio of CC50 for african green monkey Vero cells to EC50 for Dengue virus; assay type: toxicity, cell-based; conditions: read-out: Selectivity Index
[5] = Selectivity index, ratio of CC50 for human Akata cells to EC50 for Epstein-Barr virus; assay type: toxicity, cell-based; conditions: read-out: Selectivity Index
[6] = Selectivity index, ratio of CC50 for cat CRFK cells to EC50 for Feline herpesvirus; assay type: toxicity, cell-based; conditions: read-out: Selectivity Index
West Nile virus = experiment: Antiviral activity against West Nile virus infected in african green monkey Vero cells assessed as reduction of viral replication; assay type: functional, organism-based
Cowpox virus = experiment: Antiviral activity against Cowpox virus infected in HFF cells assessed as reduction of viral replication; assay type: functional, organism-based
Hepatitis B virus = experiment: Antiviral activity against HBV infected in human HepG2(2.2.15) cells assessed as reduction of viral replication; assay type: functional, organism-based
[7] = tested on: Venezuelan equine encephalitis virus; experiment: Antiviral activity against Venezuelan equine encephalitis virus infected in african green monkey Vero cells assessed as reduction of viral replication; assay type: functional, organism-based
[8] = Selectivity index, ratio of CC50 for african green monkey Vero 76 cells to EC50 for Tacaribe virus; assay type: toxicity, cell-based; conditions: read-out: Selectivity Index
[9] = Selectivity index, ratio of CC50 for african green monkey Vero 76 cells to EC50 for Punta Toro virus; assay type: toxicity, cell-based; conditions: read-out: Selectivity Index
[10] = Selectivity index, ratio of CC50 for african green monkey Vero 76 cells to EC50 for Rift Valley fever virus; assay type: toxicity, cell-based; conditions: read-out: Selectivity Index
[11] = Cytotoxicity against cat CRFK cells assessed as reduction of cell viability; assay type: cell-based, Felis catus
[12] = Cytotoxicity against african green monkey Vero cells assessed as minimum compound concentration required to cause microscopically detectable alteration of normal cell morphology; assay type: cell-based; conditions: chlorocebus sabaeus, read-out: Activity
[13] = Cytotoxicity against human Akata cells assessed as reduction of cell viability; assay type: cell-based
[14] = Cytotoxicity against human HeLa assessed as minimum compound concentration required to cause microscopically detectable alteration of normal cell morphology; assay type: cell-based; conditions: HeLa cells, read-out: Activity
[15] = Cytotoxicity against african green monkey Vero cells assessed as reduction of cell viability; assay type: cell-based; conditions: chlorocebus sabaeus
[16] = Cytotoxicity against african green monkey Vero 76 cells assessed as reduction of cell viability; assay type: cell-based; conditions: chlorocebus sabaeus
Felid alphaherpesvirus 1 = experiment: Antiviral activity against Feline herpesvirus infected in cat CRFK cells assessed as reduction of viral replication; assay type: functional, organism-based; conditions: Felid alphaherpesvirus 1, CRFK
Human respirovirus 3 = experiment: Antiviral activity against Parainfluenza-3 virus infected in african green monkey Vero cells assessed as reduction of viral replication; assay type: functional, organism-based; conditions: Human respirovirus 3, Vero
Human gammaherpesvirus 4 = experiment: Antiviral activity against Epstein-Barr virus infected in human Akata cells assessed as reduction of viral replication; assay type: functional, organism-based; conditions: human gammaherpesvirus 4, Akata
[17] = tested on: Vesicular stomatitis virus; experiment: Antiviral activity against Vesicular stomatitis virus infected in human HeLa cells assessed as reduction of viral replication; assay type: functional, organism-based
Vaccinia virus = experiment: Antiviral activity against Vaccinia virus infected in human HeLa cells assessed as reduction of viral replication; assay type: functional, organism-based; conditions: Orthopoxvirus vaccinia
Dengue virus = experiment: Antiviral activity against Dengue virus infected in african green monkey Vero cells assessed as reduction of viral replication; assay type: functional, organism-based
Junin virus = experiment: Antiviral activity against Junin virus infected in african green monkey Vero cells assessed as reduction of viral replication; assay type: functional, organism-based; conditions: Mammarenavirus juninense
Pichinde virus = experiment: Antiviral activity against Pichinde virus infected in african green monkey Vero cells assessed as reduction of viral replication; assay type: functional, organism-based
Tacaribe virus = experiment: Antiviral activity against Tacaribe virus infected in african green monkey Vero 76 cells assessed as reduction of viral replication; assay type: functional, organism-based; conditions: Mammarenavirus tacaribeense
Punta Toro virus = experiment: Antiviral activity against Punta Toro virus infected in african green monkey Vero 76 cells assessed as reduction of viral replication; assay type: functional, organism-based
Rift Valley fever virus = experiment: Antiviral activity against Rift Valley fever virus infected in african green monkey Vero 76 cells assessed as reduction of viral replication; assay type: functional, organism-based
[18] = Selectivity index, ratio of CC50 for MDCK cells to EC50 for Influenza B virus; assay type: toxicity, cell-based; conditions: dog, read-out: Ratio CC50/EC50
[19] = Selectivity index, ratio of CC50 for MDCK cells to EC50 for Influenza A virus H5N1; assay type: toxicity, cell-based; conditions: dog, read-out: Ratio CC50/EC50
[20] = Selectivity index, ratio of CC50 for MDCK cells to EC50 for Influenza A virus H3N2; assay type: toxicity, cell-based; conditions: dog, read-out: Ratio CC50/EC50
[21] = Selectivity index, ratio of CC50 for MDCK cells to EC50 for Influenza A virus H1N1; assay type: toxicity, cell-based; conditions: dog, read-out: Ratio CC50/EC50
[22] = Cytotoxicity against MDCK cells assessed as reduction of cell viability; assay type: cell-based, Canis lupus familiaris; conditions: dog
Influenza B virus = experiment: Antiviral activity against Influenza B virus infected in MDCK cells assessed as reduction of viral replication; assay type: functional, organism-based
Influenza A virus [23] = experiment: Antiviral activity against Influenza A virus H5N1 infected in MDCK cells assessed as reduction of viral replication; assay type: functional, organism-based
Influenza A virus [24] = experiment: Antiviral activity against Influenza A virus H3N2 infected in MDCK cells assessed as reduction of viral replication; assay type: functional, organism-based
Influenza A virus [25] = experiment: Antiviral activity against Influenza A virus H1N1 infected in MDCK cells assessed as reduction of viral replication; assay type: functional, organism-based
SARS-CoV = experiment: Antiviral activity against SARS coronavirus infected in african green monkey Vero cells assessed as reduction of viral replication; assay type: functional, organism-based; conditions: Severe acute respiratory syndrome-related coronavirus
[26] = tested on: Respiratory syncytial virus; experiment: Antiviral activity against Respiratory syncytial virus infected in […] cells assessed as reduction of viral replication; assay type: functional, organism-based
Hepatitis C virus = experiment: Antiviral activity against Hepatitis C virus infected in human AVA5 cells assessed as reduction of viral replication; assay type: functional, organism-based; conditions: Hepacivirus hominis
[27] = Selectivity index, ratio of CC50 for HEL to EC50 Cytomegalovirus
[28] = Selectivity index, ratio of CC50 for african green monkey Vero cells to EC50 for Measles virus; assay type: toxicity, cell-based; conditions: read-out: Ratio CC50/EC50
Cytomegalovirus = experiment: Antiviral activity against Cytomegalovirus infected in HEL assessed as reduction of viral replication; assay type: functional, organism-based; conditions: Human betaherpesvirus 5
[29] = Selectivity index, ratio of CC50 for african green monkey Vero cells to EC50 for Yellow fever virus; assay type: toxicity, cell-based; conditions: read-out: Ratio CC50/EC50
Measles morbillivirus = experiment: Antiviral activity against Measles virus infected in african green monkey Vero cells assessed as reduction of viral replication; assay type: functional, organism-based
Yellow fever virus = experiment: Antiviral activity against Yellow fever virus infected in african green monkey Vero cells assessed as reduction of viral replication; assay type: functional, organism-based
[30] = Selectivity index, ratio of minimum compound concentration required to cause microscopically detectable alteration of normal cell morphology for human HeLa cells to EC50 for Vaccinia virus; assay type: toxicity, cell-based; conditions: read-out: Selectivity Index
[31] = Cytotoxicity against HEL assessed as reduction of cell viability; assay type: cell-based; conditions: human, HEL cells

With `Nc1ncc(Br)c2c1ncn2[C@@H]1C=C(CO)[C@@H](O)[C@H]1O` the Activity [1] was “inactive”, the Activity (Coxsackievirus B4) was “inactive” and the Activity (Sindbis virus) was “inactive”. For the same compound, the Activity (Feline coronavirus) was “inactive”, the Activity (Human alphaherpesvirus 2) was “inactive” and the Activity (Human alphaherpesvirus 1) was “inactive”. It also gave a selectivity ratio [2] of 24, a selectivity ratio [3] of 160 and a selectivity ratio [4] of 57. The selectivity ratio [5] was less than 4.3, the selectivity ratio [6] was 470 and the Activity (West Nile virus) was “inactive”. For the same compound, the Activity (Cowpox virus) was “inactive”, the Activity (Hepatitis B virus) was “inactive” and the Activity [7] was “inactive”. The selectivity ratio [8] was greater than 2000, the selectivity ratio [9] was 140 and the selectivity ratio [10] was 250. The CC50 [11] was 94000 nM, the MCC [12] was greater than 100 µM and the CC50 [13] was 130 nM. It also gave an MCC [14] of no less than 100 µM, a CC50 [15] of 15200 nM and a CC50 [16] of 23200 nM. It also gave an EC50 (Felid alphaherpesvirus 1) of 200 nM, an EC50 (Human respirovirus 3) of 500 nM and an EC50 (Human gammaherpesvirus 4) greater than 30 nM. It also gave an EC50 [17] of 400 nM, an EC50 (Vaccinia virus) of 500 nM and an EC50 (Dengue virus) of 2900 nM. For the same compound, the EC50 (Junin virus) was 94 nM, the EC50 (Pichinde virus) was 1200 nM and the EC50 (Tacaribe virus) was less than 94 nM. The EC50 (Punta Toro virus) was 250 nM, the EC50 (Rift Valley fever virus) was less than 94 nM and the selectivity ratio [18] was less than 7. The selectivity ratio [19] was greater than 310, the selectivity ratio [20] was greater than 190 and the selectivity ratio [21] was greater than 2340. For the same compound, the CC50 [22] was 1100 nM, the EC50 (Influenza B virus) was greater than 160 nM and the EC50 (Influenza A virus [23]) was 940 nM. For the same compound, the EC50 (Influenza A virus [24]) was 1550 nM and the EC50 (Influenza A virus [25]) was less than 94 nM.
In the case of `Nc1ncc(Br)c2c1ncn2[C@@H]1C[C@H](CO)[C@@H](O)[C@H]1O`, the Activity (SARS-CoV) is reported as “inactive”, the Activity [26] is reported as “inactive” and the Activity (Hepatitis C virus) is reported as “inactive”. The “Ratio CC50/EC50” value [27] was 23, the selectivity ratio [28] was 4.3 and the EC50 (Cytomegalovirus) was 3500 nM. For the same compound, the selectivity ratio [29] was 9.7, the EC50 (Measles morbillivirus) was 16000 nM and the EC50 (Yellow fever virus) was 19000 nM. For the same compound, the selectivity ratio [4] was 2, the selectivity ratio [30] was greater than 1.3 and the Activity (West Nile virus) was “inactive”. For the same compound, the Activity [7] was “inactive”, the selectivity ratio [8] was 7.9 and the selectivity ratio [10] was greater than 5. The MCC [14] was greater than 300 µM, the CC50 [15] was 70000 nM and the CC50 [16] was greater than 79000 nM. The EC50 (Vaccinia virus) was 230000 nM, the EC50 (Dengue virus) was 93000 nM and the EC50 (Tacaribe virus) was 9900 nM. The EC50 (Rift Valley fever virus) was 58300 nM, the selectivity ratio [18] was greater than 340 and the selectivity ratio [19] was greater than 260. The CC50 [22] was greater than 290000 nM, the EC50 (Influenza B virus) was 840 nM and the EC50 (Influenza A virus [23]) was 1140 nM. The EC50 (Influenza A virus [24]) was greater than 290000 nM, the EC50 (Influenza A virus [25]) was greater than 290000 nM and the CC50 [31] was 80000 nM.
